This is an account of results in US8552018B2, “Substituted tricyclic compounds as protein kinase inhibitors” (Arizona Board of Regents on behalf of the University of …, priority 2003, dated 2013).

The test system of one experiment is PANC-1 cells. Put plainly: Cancer cell cytotoxicity assay (sulforhodamine B). The experiment is classed as cell-based. Conditions: Homo sapiens, 96 h; PANC-1, 4 days; read-out: IC50 PDGFR PANC-1. How it is done: To validate the hypothesis that the designed c-kit/PDGFR tyrosine kinase inhibitors mediate GIST882 cell killing and PDGFR-mediated cell killing of pancreatic cancer cell lines (CFPAC-1, PANC-1 and MIA PaCa-2), an in vitro cytotoxicity assay was performed. The GIST882 cell line used in this study has a c-kit gain-of-function mutation (K642E). The assay utilized the Cell Titer 965 Non-Radioactive Cell Proliferation Assay (Promega Corp., Madison, Wis.). First the cells were cultured. GIST882 cells were provided by Dr. Jonathan A. Fletcher (Dana-Farber Cancer Institute, Boston, Mass.). PANC-1 and MIAPaCa-2 cells were provided by Dr. Daniel Von Hoff (Arizona Cancer Center, Tucson, Ariz.). GIST882 cells were cultured in RPMI 1640 medium (Cat #21870-076, Invitrogen Corporation) supplemented with 300 mg/L L-glutamine, 100 unit/ml penicillin, 100 μg/ml streptomycin and 15% fetal bovine serum. PANC-1 and MIAPaCa-2 cells were maintained in RPMI 1640 medium (cat #10-040, Mediatech, Inc.) supplemented with 100 unit/ml penicillin, 100 μg/ml streptomycin and 10% fetal bovine serum. All the cell lines were incubated in a humidified incubator at 37° C. with 5% CO2 atmosphere.
Cells were plated at a density of 2000 to 10000 cells per well, depending on their growth rate, in 0.1 mL medium on day 0 in 96-well Falcon microtiter plates (#3072, Becton-Dickinson Labware, Lincoln Park, N.J.). On day 1, 10 μL of serial dilutions of the individual compounds were added to the plates in replicates of 4. After incubation for 4 days at 37° C. in a humidified incubator, the cells were fixed with 10% Trichloroacetic acid solution (Catalog No. 490-10, Sigma). Subsequently, they were labeled with 0.04% Sulforhodamine B (S9012, Sigma) in 1% acetic acid. After multiple washes to remove excess dye, 100 μl of 50 mM Tris solution was added to each well in order to dissolve the dye. The absorbance of each well was read on a plate reader (Wallac Vector^2, PerkinElmer) at the wavelength of 570 nm. Data were expressed as the percentage of survival of control calculated from the absorbance corrected for background absorbance. The surviving percent of cells was determined by dividing the mean absorbance values of the […] by the mean absorbance values of the control and multiplying by 100.

A further experiment deals with c-Kit (Homo sapiens, UniProt P10721). In words: Autophosphorylation assay with γ-32P-ATP. The experiment is classed as biochemical. The settings on record: FIG. 28A. How it is done: Enzymes were incubated with the appropriate concentration of inhibitor and radiolabeled γ-^32P-ATP. After 30 minutes, the reaction mixtures were electrophoresed on an acrylamide gel and autophosphorylation, quantitated by the amount of radioactivity incorporated into the enzyme, was assayed.
c-Kit, sequence (P10721 26-976): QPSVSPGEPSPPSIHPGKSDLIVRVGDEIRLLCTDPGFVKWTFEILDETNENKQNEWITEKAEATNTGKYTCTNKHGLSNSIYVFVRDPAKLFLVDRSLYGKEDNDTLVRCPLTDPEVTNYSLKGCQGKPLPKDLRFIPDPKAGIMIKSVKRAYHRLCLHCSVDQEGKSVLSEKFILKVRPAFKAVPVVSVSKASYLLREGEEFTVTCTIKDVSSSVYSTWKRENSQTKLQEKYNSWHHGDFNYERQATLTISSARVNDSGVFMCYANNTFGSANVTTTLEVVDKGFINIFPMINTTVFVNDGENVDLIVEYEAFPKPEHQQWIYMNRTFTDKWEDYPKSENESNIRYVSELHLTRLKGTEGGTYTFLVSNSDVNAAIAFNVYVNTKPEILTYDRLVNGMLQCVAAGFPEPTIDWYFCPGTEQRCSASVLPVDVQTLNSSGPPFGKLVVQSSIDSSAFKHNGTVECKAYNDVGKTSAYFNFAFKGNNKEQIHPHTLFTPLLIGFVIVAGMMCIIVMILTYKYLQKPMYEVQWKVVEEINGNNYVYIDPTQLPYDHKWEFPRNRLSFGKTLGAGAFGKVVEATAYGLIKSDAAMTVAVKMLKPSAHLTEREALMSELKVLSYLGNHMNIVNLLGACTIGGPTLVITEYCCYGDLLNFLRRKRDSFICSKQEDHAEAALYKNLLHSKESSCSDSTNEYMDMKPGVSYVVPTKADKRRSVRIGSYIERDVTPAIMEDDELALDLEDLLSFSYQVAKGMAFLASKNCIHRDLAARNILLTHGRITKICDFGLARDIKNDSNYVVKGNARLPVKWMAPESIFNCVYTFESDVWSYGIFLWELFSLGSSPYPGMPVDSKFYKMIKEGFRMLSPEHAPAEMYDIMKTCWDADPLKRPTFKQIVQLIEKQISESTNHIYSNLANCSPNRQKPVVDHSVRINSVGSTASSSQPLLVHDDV

Experiment [1] relates to pancreatic cancer cell lines MIAPaCa-2 and PANC-1. In words: Cancer cell cytotoxicity assay, range over both pancreatic lines. The experiment is classed as cell-based. Conditions: potency order. How it is done:
(§1) To validate the hypothesis that the designed c-kit/PDGFR tyrosine kinase inhibitors mediate GIST882 cell killing and PDGFR-mediated cell killing of pancreatic cancer cell lines (CFPAC-1, PANC-1 and MIA PaCa-2), an in vitro cytotoxicity assay was performed. The GIST882 cell line used in this study has a c-kit gain-of-function mutation (K642E). […] First the cells were cultured. GIST882 cells were provided by Dr. Jonathan A. Fletcher (Dana-Farber Cancer Institute, Boston, Mass.). PANC-1 and MIAPaCa-2 cells were provided by Dr. Daniel Von Hoff (Arizona Cancer Center, Tucson, Ariz.). […] All the cell lines were incubated in a humidified incubator at 37° C. with 5% CO2 atmosphere.
After incubation for 4 days at 37° C. in a humidified incubator, the cells were fixed with 10% Trichloroacetic acid solution (Catalog No. 490-10, Sigma). Subsequently, they were labeled with 0.04% Sulforhodamine B (S9012, Sigma) in 1% acetic acid. […] The absorbance of each well was read on a plate reader (Wallac Vector^2, PerkinElmer) at the wavelength of 570 nm. Data were expressed as the percentage of survival of control calculated from the absorbance corrected for background absorbance. The surviving percent of cells was determined by dividing the mean absorbance values of the […] by the mean absorbance values of the control and multiplying by 100.

Experiment [2] relates to GIST882 cell line. In words: GIST882 cell growth assay (Cell-Titer-Glo). The experiment is classed as cell-based. The protocol: (§2) Briefly, cells are seeded into 96-well, tissue-culture treated, opaque white plates (Thermo Electron, Vantaa, Finland), at between 5000 and 7500 cells per well, depending on the speed of cell proliferation, in 100 μl of appropriate growth medium (determined by the ATCC). Cells are then exposed to the appropriate concentration of drug or an equal amount of DMSO (drug diluent) and allowed to grow in its presence for 96 hours. Following this, 100 μl of Cell-Titer-Glo reagent (Promega, Inc., Madison, Wis.) is added to each well. Plates are then shaken for 2 minutes at room temperature to allow for cell lysis and incubated for 10 minutes to stabilize the luminescent signal. Similar to the Kinase-Glo assay reagent, this reagent contains both luciferase enzyme and its substrate luciferin. Luciferase, activated by ATP in the cell lysate, catalyzes the conversion of luciferin to oxyluciferin, a reaction which produces light. The amount of light produced is proportionate to the amount of ATP in the cell lysate, which is itself proportional to cell number and gives an index of cellular proliferation.
as §2, with “Various compounds of the invention, including (IV-1-3) (also referred to as HPK16), (III-1-3) (also referred to as HPK56), (III-1-4) (also referred to as HPK57), (III-1-5) (also referred to as HPK59), and (II-2-7) (also referred to as HPK61) were tested for activity against GIST tumor cells using the GIST882 cell line. Briefly,” for “Briefly,”

The test system of experiment [3] is GIST882 cell line. In words: Cancer cell cytotoxicity assay (sulforhodamine B). The experiment is classed as cell-based. How it is done:
as §1
After incubation for 4 days at 37° C. in a humidified incubator, the cells were fixed with 10% Trichloroacetic acid solution (Catalog No. 490-10, Sigma). Subsequently, they were labeled with 0.04% Sulforhodamine B (S9012, Sigma) in 1% acetic acid. After multiple washes to remove excess dye, 100 μl of 50 mM Tris solution was added to each well in order to dissolve the dye. The absorbance of each well was read on a plate reader (Wallac Vector^2, PerkinElmer) at the wavelength of 570 nm. Data were expressed as the percentage of survival of control calculated from the absorbance corrected for background absorbance. The surviving percent of cells was determined by dividing the mean absorbance values of the […] by the mean absorbance values of the control and multiplying by 100.

`COc1cc2[nH]c3ncnc(N4CCN(C(=S)NCc5ccc6c(c5)OCO6)CC4)c3c2cc1OC` [HPK61, 4-(6,7-Dimethoxy-9H-1,3,9-triaza-fluoren-4-yl)-piperazine-1-carbothioic acid (benzo[1,3]dioxol-5-ylmethyl)-amide]: the concentration for half-maximal inhibition (IC50) was 16 µM in the experiment on PANC-1 cells; 15.5 to 16 µM in experiment [1]; 0.45 µM in the experiment on GIST882 cell line [2] (Homo sapiens, GIST882, 96 hours); 0.45 µM with GIST882 cell line [3] (Homo sapiens, 96 h, GIST882, 4 days, read-out: IC50 c-kit GIST882). Further, the “inhibition of c-Kit autophosphorylation (in words)” value against c-Kit is reported as “dose-dependent”. In the experiment with GIST882 cell line [2] (FIG. 29, 96 hours), the “inhibitory activity in GIST882 cell line (in words)” value is listed as “highest inhibitory activity”. For the same molecule, in the experiment with GIST882 cell line [3] (GIST882, day 4), the “cells alive at day 4” value amounted to 5%.
